This note sets out measurements from ChEMBL document CHEMBL1127957, “Synthesis and glutamate antagonist activity of 4-phosphonoalkylquinoline derivatives: A novel class of non-NMDA antagonist” (Bioorg Med Chem Lett, 1994).

A short description of assay [1]: Tested for its ability to displace [3H]glutamate from NMDA receptor.
For assay [2], the species on record is Rattus norvegicus. In words: Compound was tested for its ability to inhibit kainic acid (KA)-induced inward currents in Xenopus oocytes injected with poly {A+) mRNA from rats. In kind it is functional.
The nature of assay [3]: Displacement of [3H]CNQX from Ionotropic glutamate receptor kainate/Ionotropic glutamate receptor AMPA in rat cortical membranes. It counts as cell membranes, Membrane.
Assay [4] deals with Glutamate receptor ionotropic, NMDA 1 (Rattus norvegicus, UniProt P35439). The experiment in a line: Binding affinity at glycine co-agonist site of rat NMDA receptor.
The species named for assay [5] is Rattus norvegicus. In words: Compound was tested for the ability to inhibit kainic acid (KA)-induced inward currents in Xenopus oocytes injected with poly {A+) mRNA from rats. It counts as functional.

With `NC(Cc1cc(I)ccc1CCP(=O)(O)O)C(=O)O` (stereo unspecified), the IC50 in assay [1] is over 300 µM; in assay [3] it was 7.3 µM; in assay [4] it was 81 µM. In addition, the Ki in assay [2] amounted to 3.5 µM.
Compound `O=[N+]([O-])c1c(Cl)ccc2nc(O)cc(CP(=O)(O)O)c12` showed an inhibitory constant (Ki) in assay [5] of over 300 µM. In addition, the half-inhibitory concentration (IC50) in assay [1], in assay [3] and in assay [4] was over 1000 µM throughout.
`O=P(O)(O)Cc1cc(O)nc2cc(Cl)ccc12` had an inhibition constant (Ki) in assay [5] of 32 µM. Besides, the half-inhibitory concentration (IC50) was 30 µM in assay [1], 59 µM in assay [3] and 10 µM in assay [4].
On to `O=P(O)(O)c1cc(O)nc2cc(Cl)ccc12`, for which the Ki in assay [5] is over 1000 µM. Besides, the IC50 in assay [1] is over 300 µM; in assay [4] it was over 1000 µM.
`O=P(O)(O)CCc1cc(O)nc2cc(Cl)ccc12`: the IC50 in assay [1] is 600 µM; in assay [3], 91 µM.
In assay [5], `O=P(O)(O)Cc1cc(O)nc2cc(Cl)cc(Cl)c12` returned an inhibition constant Ki of 18.2 µM. For the same compound, the IC50 in assay [1] is over 100 µM; in assay [3] it was 26 µM; in assay [4] it was 29 µM.
Taken in the same sequence, the figures for `O=C(O)c1cc(CCP(=O)(O)O)c2ccc(Cl)cc2n1` were 450 µM, over 1000 µM, 384 µM and over 1000 µM.
Turning to `O=[N+]([O-])c1c(Cl)ccc2c(CP(=O)(O)O)cc(O)nc12`, the results for the IC50 in assay [1], in assay [3] and in assay [4] were over 1000 µM, 300 µM and over 1000 µM, respectively.
Regarding `O=C(O)c1cc(CP(=O)(O)O)c2ccc(Cl)cc2n1`, the inhibition constant Ki in assay [5] was 132 µM. The IC50 in assay [3] turned out to be 61 µM; in assay [4], 69 µM.
In turn, `O=P(O)(O)Cc1cc(O)nc2cc(Cl)c(Cl)cc12` came in with a Ki in assay [5] of 9.6 µM. Moreover, the IC50 in assay [1] was over 100 µM; in assay [3], 15 µM; in assay [4] it was 79 µM.
In assay [5], `O=P(O)(O)Cc1cc(O)nc2cc(I)ccc12` displayed an inhibition constant (Ki) of 15.6 µM. Besides, the figures for the IC50 in assay [1], in assay [3] and in assay [4] were 35 µM, 35 µM and 37 µM, respectively.
With `N#Cc1cc2c(cc1[N+](=O)[O-])=NC(=O)C(=O)N=2`, the half-maximal inhibitory concentration (IC50) in assay [3] came out at 0.13 µM; in assay [4], 7.9 µM.
